# According to patent US9598463B2, “Mucin hypersecretion inhibitors and methods of use” (BIOMARCK PHARMACEUTICALS, LTD., priority 2005, dated 2017):
# Marks after values point to notes of the source that are not given here. Where a SMILES comes first, the peptide text is derived from it. The star is where a group is joined. Myristoyl = CCCCCCCCCCCCCC(=O)*
# Legend:
# [1] = tested on: methacholine-induced mucin hypersecretion; assay: Methacholine-induced mucin hypersecretion in ovalbumin-sensitized mouse model of asthma, BAL mucin ELISA (Balb/C mice); type: in vivo; conditions: peptides at 100 μM
# Source text: Experiments were designed to test whether or not the MANS peptide and other test peptides related thereto inhibit hypersecretion of mucin in murine airway in vivo. The ovalbumin-sensitized mouse model of allergic inflammation and asthma used in these studies was as described by Singer et al. (2004), supra. As a negative control, a control peptide containing an N-terminal myristoyl group and the same amino acids as MANS peptide but arranged in random order (i.e., the random N-terminal sequence, RNS, myristoyl-peptide 232) was tested alongside the proposed active peptides. BP2 mice, aged 6-8 wks, were immunized subcutaneously twice at weekly intervals with 1 μg of ovalbumin. After 14 days of sensitization, the animals were exposed to aerosolized ovalbumin, which causes a pronounced goblet cell hyperplasia after 72 hours. At the 72 hr time point, the secretagogue, methacholine ([…]) was delivered using a Buxco system nebulizer providing a fine aerosol for 90 seconds. Fifteen min prior to the secretagogue challenge, 50 μL of the test peptide, at 3 different concentrations (10 μM, 100 μM, or 140 μM), was administered by intratracheal route. The RNS peptide was tested at the highest dose level only (50 μL of 140 μM solution). […] Each experiment was carried out in 6 mice per point, and each set of experiments was repeated 3 times. To test strain-to-strain variations, the above experiment was repeated in Balb/C mice under similar protocol. Both stimulated and unstimulated mucin secretion, in mice treated with […] sodium acetate (data not shown), were identical to saline control. Following the methacholine challenge, the animals were sacrificed and bronchoalveolar lavage (BAL) performed on 6 animals per group for analysis of secreted mucin.
# Mice were sacrificed by cervical dislocation, followed by rapid exposure of the trachea and insertion of a cannula through a small incision. Bronchoalveolar lavage (BAL) fluid was collected with 0.5 ml followed by 3×1 ml PBS containing PMSF (5 mM), EDTA (5 mM), and DTT (5 mM). BAL fluid was separated into cell-free and cell fractions via brief centrifugation prior to any analyses being performed. The cell-free supernatants were analyzed for the presence of mucin via an ELISA method using anti-mucin antibodies shown to react with mouse mucin. Specifically, a mouse anti-MUC5AC antibody that recognizes the carbohydrate portion of secreted mucin was used in these assays. Data generated from each BAL sample were normalized to total protein as determined by Bradford assay. Mucin content was expressed as the value obtained with the anti-mucin antibody minus that obtained with the non-immune control antibody. All ELISA data were statistically examined using a one-way ANOVA.
# [2] = Qualitative solubility of test peptides in 0.5 N saline; type: physicochemical; conditions: pH 6.5, 20° C. (table title)
# Method: Various test peptides (1 to 5 mg each) were weighed out accurately in individual 2 mL screw cap glass vials and aliquots of 25 μL of 0.5 N saline, pH 6.5, were added at 25° C. and ambient pressure. The solubility was evaluated visually. If the test peptide dissolves completely with the first aliquot of saline, its solubility was calculated and designated as more than the calculated amount. […] Similarly, if 1.7 mg of a test peptide fails to dissolve in 1.7 mL of 0.5 N saline, its solubility is stated as <1.0 mg/mL.
# [3] = Table II, 50 μL intratracheal 15 min before methacholine
Molecule,Mucin Secretion % control ([1]; Table III),solubility [2] [mg/mL],"Mucin Secretion % control [1, 3] [% control]"
CCCCCCCCCCCCCC(=O)NCC(=O)N[C@@H](C)C(=O)N[C@@H](CCC(N)=O)C(=O)N[C@@H](Cc1ccccc1)C(=O)N[C@@H](CO)C(=O)N[C@@H](CCCCN)C(=O)N[C@H](C(=O)N[C@@H](C)C(=O)N[C@@H](C)C(=O)N[C@@H](CCCCN)C(=O)NCC(=O)N[C@@H](CCC(=O)O)C(=O)N[C@@H](C)C(=O)N[C@@H](C)C(=O)N[C@@H](C)C(=O)N[C@@H](CCC(=O)O)C(=O)N[C@@H](CCCNC(=N)N)C(=O)N1CCC[C@H]1C(=O)NCC(=O)N[C@@H](CCC(=O)O)C(=O)O)[C@@H](C)O [myr-peptide 11] (Myristoyl-GAQFSKTAAKGEAAAERPGE-OH),54 % control,> 2,
CCCCCCCCCCCCCC(=O)N[C@@H](CO)C(=O)N[C@@H](CCCCN)C(=O)N[C@H](C(=O)N[C@@H](C)C(=O)N[C@@H](C)C(=O)N[C@@H](CCCCN)C(=O)NCC(=O)N[C@@H](CCC(=O)O)C(=O)N[C@@H](C)C(=O)N[C@@H](C)C(=O)N[C@@H](C)C(=O)N[C@@H](CCC(=O)O)C(=O)N[C@@H](CCCNC(=N)N)C(=O)N1CCC[C@H]1C(=O)NCC(=O)N[C@@H](CCC(=O)O)C(=O)N[C@@H](C)C(=O)N[C@@H](C)C(=O)N[C@H](C(=O)N[C@@H](C)C(=O)O)C(C)C)[C@@H](C)O [myr-peptide 15] (Myristoyl-SKTAAKGEAAAERPGEAAVA-OH),38* % control,> 80,
CCCCCCCCCCCCCC(=O)NCC(=O)N[C@@H](C)C(=O)N[C@@H](CCC(N)=O)C(=O)N[C@@H](Cc1ccccc1)C(=O)N[C@@H](CO)C(=O)N[C@@H](CCCCN)C(=O)N[C@H](C(=O)N[C@@H](C)C(=O)N[C@@H](C)C(=O)N[C@@H](CCCCN)C(=O)NCC(=O)N[C@@H](CCC(=O)O)C(=O)N[C@@H](C)C(=O)N[C@@H](C)C(=O)N[C@@H](C)C(=O)N[C@@H](CCC(=O)O)C(=O)O)[C@@H](C)O [myr-peptide 37] (Myristoyl-GAQFSKTAAKGEAAAE-OH),35** % control,> 2,
CCCCCCCCCCCCCC(=O)N[C@@H](C)C(=O)N[C@@H](CCCCN)C(=O)NCC(=O)N[C@@H](CCC(=O)O)C(=O)N[C@@H](C)C(=O)N[C@@H](C)C(=O)N[C@@H](C)C(=O)N[C@@H](CCC(=O)O)C(=O)N[C@@H](CCCNC(=N)N)C(=O)N1CCC[C@H]1C(=O)NCC(=O)N[C@@H](CCC(=O)O)C(=O)N[C@@H](C)C(=O)N[C@@H](C)C(=O)N[C@H](C(=O)N[C@@H](C)C(=O)O)C(C)C [myr-peptide 45] (Myristoyl-AKGEAAAERPGEAAVA-OH),35** % control,> 80,
CCCCCCCCCCCCCC(=O)NCC(=O)N[C@@H](C)C(=O)N[C@@H](CCC(N)=O)C(=O)N[C@@H](Cc1ccccc1)C(=O)N[C@@H](CO)C(=O)N[C@@H](CCCCN)C(=O)N[C@H](C(=O)N[C@@H](C)C(=O)N[C@@H](C)C(=O)N[C@@H](CCCCN)C(=O)NCC(=O)N[C@@H](CCC(=O)O)C(=O)O)[C@@H](C)O [myr-peptide 79] (Myristoyl-GAQFSKTAAKGE-OH),48 % control,> 2,50
CCCCCCCCCCCCCC(=O)N[C@@H](C)C(=O)N[C@@H](C)C(=O)N[C@@H](C)C(=O)N[C@@H](CCC(=O)O)C(=O)N[C@@H](CCCNC(=N)N)C(=O)N1CCC[C@H]1C(=O)NCC(=O)N[C@@H](CCC(=O)O)C(=O)N[C@@H](C)C(=O)N[C@@H](C)C(=O)N[C@H](C(=O)N[C@@H](C)C(=O)O)C(C)C [myr-peptide 91] (Myristoyl-AAAERPGEAAVA-OH),68 % control,< 20,
CCCCCCCCCCCCCC(=O)NCC(=O)N[C@@H](C)C(=O)N[C@@H](CCC(N)=O)C(=O)N[C@@H](Cc1ccccc1)C(=O)N[C@@H](CO)C(=O)N[C@@H](CCCCN)C(=O)N[C@H](C(=O)N[C@@H](C)C(N)=O)[C@@H](C)O [myr-peptide 137-NH2] (Myristoyl-GAQFSKTA-NH2),,,56
CCCCCCCCCCCCCC(=O)NCC(=O)N[C@@H](C)C(=O)N[C@@H](CCC(N)=O)C(=O)N[C@@H](Cc1ccccc1)C(=O)N[C@@H](CO)C(=O)N[C@@H](CCCCN)C(=O)N[C@H](C(=O)N[C@@H](C)C(=O)O)[C@@H](C)O [myr-peptide 137] (Myristoyl-GAQFSKTA-OH),,< 1,55
CCCCCCCCCCCCCC(=O)N[C@@H](CCCNC(=N)N)C(=O)N1CCC[C@H]1C(=O)NCC(=O)N[C@@H](CCC(=O)O)C(=O)N[C@@H](C)C(=O)N[C@@H](C)C(=O)N[C@H](C(=O)N[C@@H](C)C(=O)O)C(C)C [myr-peptide 153] (Myristoyl-RPGEAAVA-OH),50 % control,< 10,
CCCCCCCCCCCCCC(=O)NCC(=O)N[C@@H](CCCCN)C(=O)N[C@@H](CCC(N)=O)C(=O)N[C@@H](Cc1ccccc1)C(=O)N[C@@H](CO)C(=O)N[C@@H](CCCCN)C(=O)N[C@H](C(=O)N[C@@H](C)C(=O)N[C@@H](C)C(=O)N[C@@H](CCCCN)C(=O)NCC(=O)N[C@@H](CCC(=O)O)C(=O)O)[C@@H](C)O [myr-peptide 233] (Myristoyl-GKQFSKTAAKGE-OH),,> 3,21
CCCCCCCCCCCCCC(=O)NCC(=O)N[C@@H](CCCCN)C(=O)N[C@@H](CCC(N)=O)C(=O)N[C@@H](Cc1ccccc1)C(=O)N[C@@H](CO)C(=O)N[C@@H](CCCCN)C(=O)N[C@H](C(=O)N[C@@H](CCCCN)C(=O)N[C@@H](C)C(=O)N[C@@H](CCCCN)C(=O)NCC(=O)N[C@@H](CCC(=O)O)C(=O)O)[C@@H](C)O [myr-peptide 235] (Myristoyl-GKQFSKTKAKGE-OH),,> 60,13
Ac-GAQFSKTAAKGA-OH [Ac-peptide 241],,> 50,
Ac-GAQFSKTAAKGE-OH [Ac-peptide 79],,> 100,
Ac-GAQFSKTAAKGEAAAERPGEAAVA-OH [Ac-peptide 1],,> 125,
"Ac-GKASQFAKTA-OH [Ac-peptide 252, reference compound]",,< 30,
"Ac-KAATKSFQAG-OH [Ac-peptide 246, reference compound]",,< 30,
Ac-KTAAKGE-NH2 [Ac-peptide 159-NH2],,> 200,
Ac-QFSKTAAKGE-NH2 [Ac-peptide 108-NH2],,> 150,
Ac-SKTAAKGE-NH2 [Ac-peptide 141-NH2],,> 200,
Ac-TAAKGEAA-OH [Ac-peptide 143],,> 230,
"H-GAQFSKTAAKGE-OH [peptide 79, GAQFSKTAAKGE]",,> 60,10
